According to ChEMBL document CHEMBL3856231 (J Med Chem, 2016):
Activity calls are given as the source filed them. The calls are words filed in the database; no cut-off is given here.

What was measured:
[1] = Oral bioavailability in cynomolgus monkey at 10 mg/kg by LC/MS/MS analysis; assay type: ADME, organism-based, Macaca fascicularis; conditions: in vivo
[2] = Ratio of total drug level in Sprague-Dawley rat brain to plasma at 30 mg/kg, po; assay type: ADME, organism-based; conditions: brain and plasma, read-out: BPR
[3] = Drug level in tumor of NPM-ALK expressing human SUP-M2 cells xenografted mouse at 30 mg/kg, po administered as single dose measured at 12 hrs by LC-MS/MS analysis; assay type: ADME, organism-based, Neoplasm; conditions: read-out: Drug uptake
[4] = Drug level in plasma of FAK expressing human CWR22 cells xenografted Nu/Nu mouse at 55 mg/kg, po administered as single dose measured at 24 hrs by LC-MS/MS analysis; assay type: ADME, organism-based
[5] = AUC (0 to infinity) in CD-1 mouse at 10 mg/kg, po by LC/MS/MS analysis; assay type: ADME, organism-based; parameters: dose 10 mg/kg, time infinity, route oral; conditions: in vivo
NCI-H3122 = experiment: (§1) Cytotoxicity against human NCI-H3122 cells expressing EML4-ALK assessed as cell growth inhibition; assay type: functional, cell-based
[6] = as §1; assay type: functional, cell-based
IBC = experiment: Cytotoxicity against human IBC cells assessed as reduction in cell proliferation; assay type: functional, cell-based
[7] = AUC (0 to infinity) in Sprague-Dawley rat at 1 mg/kg, iv by LC/MS/MS analysis; assay type: ADME, organism-based; parameters: dose 1 mg/kg, time infinity, route intravenous; conditions: in vivo
[8] = Drug level in tumor of FAK expressing human CWR22 cells xenografted Nu/Nu mouse at 55 mg/kg, po administered as single dose measured at 12 hrs by LC-MS/MS analysis; assay type: ADME, organism-based, Neoplasm; conditions: read-out: Drug uptake
KARPAS-299 = experiment: Induction of apoptosis assessed as caspase 3/7 activation in human KARPAS299 expressing NPM-ALK; assay type: functional
[9] = Drug level in tumor of FAK expressing human CWR22 cells xenografted Nu/Nu mouse at 55 mg/kg, po administered as single dose measured at 2 hrs by LC-MS/MS analysis; assay type: ADME, organism-based, Neoplasm; conditions: read-out: Drug uptake
Cytochrome P450 1A2 = target: T1, Cytochrome P450 1A2 (Homo sapiens, UniProt P05177); experiment: Inhibition of CYP1A2 in human liver microsomes using phenacetin as substrate in presence of NADPH by LC/MS/MS analysis; assay type: ADME
T1 sequence (P05177 whole entry): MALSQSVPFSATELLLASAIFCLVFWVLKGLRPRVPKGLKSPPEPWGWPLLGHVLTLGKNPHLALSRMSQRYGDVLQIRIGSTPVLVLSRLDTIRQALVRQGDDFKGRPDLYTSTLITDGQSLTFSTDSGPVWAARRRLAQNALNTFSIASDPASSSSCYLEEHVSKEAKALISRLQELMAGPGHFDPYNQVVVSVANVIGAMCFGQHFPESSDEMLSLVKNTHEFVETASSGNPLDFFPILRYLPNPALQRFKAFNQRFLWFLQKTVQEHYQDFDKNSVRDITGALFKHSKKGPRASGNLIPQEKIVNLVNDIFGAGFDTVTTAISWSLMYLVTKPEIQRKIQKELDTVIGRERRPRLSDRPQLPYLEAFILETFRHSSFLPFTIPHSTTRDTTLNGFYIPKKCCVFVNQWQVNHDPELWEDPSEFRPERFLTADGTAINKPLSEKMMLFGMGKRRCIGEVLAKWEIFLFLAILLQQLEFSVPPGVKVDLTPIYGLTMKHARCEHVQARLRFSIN

[10] = Half life in human liver microsomes by LC/MS/MS analysis; assay type: ADME
[11] = Clearance in cynomolgus monkey at 1 mg/kg, iv by LC/MS/MS analysis; assay type: ADME, organism-based, Macaca fascicularis; conditions: in vivo
SUP-M2 = experiment: Antitumor activity against human SUP-M2 cells expressing NPM-ALK xenografted in SCID-Beige mouse assessed as tumor regression at 30 mg/kg, po qd administered for 12 days measured during compound dosing; assay type: functional, organism-based
[12] = Binding affinity to partial length human ALK 1151Tins mutant expressed in mammalian system by KINOMEscan assay
[13] = Oral bioavailability in Sprague-Dawley rat at 5 mg/kg by LC/MS/MS analysis; assay type: ADME, organism-based; conditions: in vivo
[14] = Half life in Sprague-Dawley rat at 1 mg/kg, iv by LC/MS/MS analysis; assay type: ADME, organism-based; conditions: in vivo
Cytochrome P450 2D6 = Cytochrome P450 2D6 (Homo sapiens, UniProt P10635); experiment: Inhibition of CYP2D6 in human liver microsomes using dextromethorphan as substrate in presence of NADPH by LC/MS/MS analysis; assay type: ADME
Chain of Cytochrome P450 2D6 (P10635 whole entry): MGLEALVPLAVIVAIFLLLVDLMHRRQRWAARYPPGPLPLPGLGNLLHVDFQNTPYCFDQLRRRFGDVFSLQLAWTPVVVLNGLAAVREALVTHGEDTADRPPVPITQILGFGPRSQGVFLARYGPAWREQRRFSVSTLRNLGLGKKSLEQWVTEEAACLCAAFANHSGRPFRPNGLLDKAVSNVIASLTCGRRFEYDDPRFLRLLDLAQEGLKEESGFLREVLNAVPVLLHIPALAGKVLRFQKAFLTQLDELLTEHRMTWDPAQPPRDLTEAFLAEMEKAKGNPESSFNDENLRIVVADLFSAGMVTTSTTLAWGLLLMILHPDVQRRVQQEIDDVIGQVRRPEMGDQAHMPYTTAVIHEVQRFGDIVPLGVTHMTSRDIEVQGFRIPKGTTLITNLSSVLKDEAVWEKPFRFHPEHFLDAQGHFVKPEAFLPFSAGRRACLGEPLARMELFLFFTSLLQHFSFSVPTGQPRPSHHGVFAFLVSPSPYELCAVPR

[15] = Drug level in tumor of FAK expressing human CWR22 cells xenografted Nu/Nu mouse at 55 mg/kg, po administered as single dose measured at 24 hrs by LC-MS/MS analysis; assay type: ADME, organism-based, Neoplasm; conditions: read-out: Drug uptake
[16] = Tmax in Sprague-Dawley rat at 5 mg/kg, po by LC/MS/MS analysis; assay type: ADME, organism-based; conditions: in vivo
[17] = AUC (0 to infinity) in cynomolgus monkey at 10 mg/kg, po by LC/MS/MS analysis; assay type: ADME, organism-based, Macaca fascicularis; parameters: dose 10 mg/kg, route oral, time infinity; conditions: in vivo
[18] = Dose normalized AUC in cynomolgus monkey at 10 mg/kg, po by LC/MS/MS analysis; assay type: ADME, organism-based, Macaca fascicularis; conditions: in vivo
[19] = Drug level in plasma of FAK expressing human CWR22 cells xenografted Nu/Nu mouse at 55 mg/kg, po administered as single dose measured at 12 hrs by LC-MS/MS analysis; assay type: ADME, organism-based
[20] = Tmax in CD-1 mouse at 10 mg/kg, po by LC/MS/MS analysis; assay type: ADME, organism-based; conditions: in vivo
[21] = AUC (0 to infinity) in Sprague-Dawley rat at 5 mg/kg, po by LC/MS/MS analysis; assay type: ADME, organism-based; parameters: dose 5 mg/kg, time infinity, route oral; conditions: in vivo
[22] = Cmax in cynomolgus monkey at 10 mg/kg, po by LC/MS/MS analysis; assay type: ADME, organism-based, Macaca fascicularis; parameters: dose 10 mg/kg, route oral; conditions: in vivo
[23] = Antitumor activity against human CTG-0142 cells expressing activated FAK xenografted in mouse assessed as tumor growth inhibition at 55 mg/kg, po bid administered for 28 days measured during compound dosing; assay type: functional; conditions: CTG-0142, po, 672 h, read-out: TGI
[24] = Drug level in tumor of NPM-ALK expressing human SUP-M2 cells xenografted mouse at 30 mg/kg, po administered as single dose measured at 6 hrs by LC-MS/MS analysis; assay type: ADME, organism-based, Neoplasm; conditions: read-out: Drug uptake
[25] = Drug level in plasma of NPM-ALK expressing human SUP-M2 cells xenografted mouse at 30 mg/kg, po administered as single dose measured at 2 hrs by LC-MS/MS analysis; assay type: ADME, organism-based
Mus musculus = experiment: Toxicity in SCID-Beige mouse xenografted with human HCC827 cells expressing activated FAK assessed as body weight loss at 30 to 55 mg/kg, po bid administered for 28 days measured every 2 to 3 days; assay type: organism-based; conditions: in vivo
NCI-H2228 = experiment: Antitumor activity against human NCI-H2228 cells expressing EML4-ALK xenografted in SCID-Beige mouse assessed as reduction in tumor re-emergence at 30 and 55 mg/kg, po bid for 11 days followed by switching of drug schedule to 55 mg/kg, po qd on day 12 up to day 40 and measured on day 80; assay type: functional, organism-based
[26] = Half life in CD-1 mouse liver microsomes by LC/MS/MS analysis; assay type: ADME
[27] = target: ALK tyrosine kinase receptor (Homo sapiens, UniProt Q9UM73); conditions: 1 uM
Chain of ALK tyrosine kinase receptor (Q9UM73 19-1620 limits assumed): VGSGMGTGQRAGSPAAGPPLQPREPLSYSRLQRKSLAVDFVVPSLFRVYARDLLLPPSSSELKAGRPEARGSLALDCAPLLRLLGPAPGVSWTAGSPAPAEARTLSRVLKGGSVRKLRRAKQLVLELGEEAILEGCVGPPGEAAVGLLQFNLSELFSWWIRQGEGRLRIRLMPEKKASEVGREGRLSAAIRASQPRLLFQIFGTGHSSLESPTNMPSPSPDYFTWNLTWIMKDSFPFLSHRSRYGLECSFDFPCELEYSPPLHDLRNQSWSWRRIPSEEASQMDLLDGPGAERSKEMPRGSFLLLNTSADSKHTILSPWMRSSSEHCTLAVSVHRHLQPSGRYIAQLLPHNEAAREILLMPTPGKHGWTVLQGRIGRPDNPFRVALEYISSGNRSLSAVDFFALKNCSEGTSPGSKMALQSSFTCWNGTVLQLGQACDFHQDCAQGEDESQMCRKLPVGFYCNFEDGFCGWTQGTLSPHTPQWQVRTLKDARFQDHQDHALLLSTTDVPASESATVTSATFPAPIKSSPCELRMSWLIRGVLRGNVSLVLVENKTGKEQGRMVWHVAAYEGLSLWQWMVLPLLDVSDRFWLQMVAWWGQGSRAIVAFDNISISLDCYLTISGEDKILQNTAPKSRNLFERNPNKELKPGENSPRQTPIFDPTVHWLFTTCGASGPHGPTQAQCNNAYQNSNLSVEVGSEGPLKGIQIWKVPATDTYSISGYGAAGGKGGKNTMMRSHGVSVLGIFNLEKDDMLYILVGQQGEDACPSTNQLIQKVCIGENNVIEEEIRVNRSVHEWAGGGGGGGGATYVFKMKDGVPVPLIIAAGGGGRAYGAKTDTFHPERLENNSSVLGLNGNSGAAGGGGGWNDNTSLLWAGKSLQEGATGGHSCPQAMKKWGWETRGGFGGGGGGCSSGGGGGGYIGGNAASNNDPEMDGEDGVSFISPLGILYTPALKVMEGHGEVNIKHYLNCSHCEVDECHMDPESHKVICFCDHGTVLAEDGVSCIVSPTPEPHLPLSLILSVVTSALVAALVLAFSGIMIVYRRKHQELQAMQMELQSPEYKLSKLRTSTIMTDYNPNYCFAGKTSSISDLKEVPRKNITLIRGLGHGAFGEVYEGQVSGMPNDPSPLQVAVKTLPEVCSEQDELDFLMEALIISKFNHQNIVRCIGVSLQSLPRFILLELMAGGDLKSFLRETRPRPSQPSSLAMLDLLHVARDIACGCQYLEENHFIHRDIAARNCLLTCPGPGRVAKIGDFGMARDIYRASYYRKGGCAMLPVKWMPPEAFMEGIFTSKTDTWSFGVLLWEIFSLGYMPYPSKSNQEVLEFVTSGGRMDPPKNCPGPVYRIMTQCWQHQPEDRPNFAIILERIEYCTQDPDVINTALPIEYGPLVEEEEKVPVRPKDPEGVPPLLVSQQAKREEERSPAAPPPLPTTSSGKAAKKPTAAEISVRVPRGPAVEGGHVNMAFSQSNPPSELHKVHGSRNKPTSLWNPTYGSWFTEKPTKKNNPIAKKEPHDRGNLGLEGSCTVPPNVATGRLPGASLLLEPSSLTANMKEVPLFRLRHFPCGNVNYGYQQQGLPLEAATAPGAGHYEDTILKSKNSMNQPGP
Description: Inhibition of human ALK (1088 to 1409 residues) expressed in mammalian system at 1 uM by KINOMEscan assay

CNC(=O)c1ccccc1Nc1nc(Nc2ccc3c(c2OC)CCC[C@H](N2CCN(CCO)CC2)C3)ncc1Cl [CEP-37440]
bioavailability [1]: 50% | Kp [2]: 1.5 to 2 | concentration at 12 h [3]: 8580 ng/g | concentration at 24 h [4]: 1190 ng/mL | AUC(0-inf) [5]: 16400 ng·h/mL | growth inhibition (GI) (NCI-H3122): Dose-dependent effect | IC50 [6]: 1.78 µM | growth inhibition (GI) (IBC): Dose-dependent effect | AUC(0-inf) [7]: 4000 ng·h/mL | concentration at 12 h [8]: 3810 ng/g | Activity (KARPAS-299): Active | concentration at 2 h [9]: 6070 ng/g | IC50 (Cytochrome P450 1A2): > 5.6 µM | half-life [10]: 0.667 h | clearance [11]: 30 mL/min/kg | Activity (SUP-M2): Active | Kd [12]: 0.0026 µM | bioavailability [13]: 42% | half-life [14]: 2 h | IC50 (Cytochrome P450 2D6): > 5.6 µM | concentration at 24 h [15]: 8680 ng/g | Tmax [16]: 3.3 h | AUC(0-inf) [17]: 2760 ng·h/mL | AUC/dose [18]: 276 ng·h/mL | concentration at 12 h [19]: 541 ng/mL | Tmax [20]: 2 h | AUC(0-inf) [21]: 8360 ng·h/mL | Cmax [22]: 239 ng/mL | inhibition in vivo at 55 mg/kg [23]: 75% | concentration at 6 h [24]: 6930 ng/g | concentration at 2 h [25]: 4740 ng/mL | Activity (Mus musculus): Non-Toxic | Activity (NCI-H2228): Active | half-life [26]: 0.667 h | inhibition [27]: > 90%
